In data set [1] the test system is P-388 murine leukemia cells. Kind of data set: Cytotoxicity assay, P388 mouse leukemia cells. It is filed as cell-based. On the procedure:
(§1) The following assay method was utilized to illustrate the antitumor effectiveness of compounds 1-7.
(§2) L1210 And P388 MOUSE LEUKEMIA CELL; ILEOCECAL ADENO CARCINOMA HCT-8; AND LUNG CARCINOMA A549; CYTOXICITY ASSAY 24-WELL PLATE SCREENING ASSAY AND TUBE ASSAY PROTOCOL
(§3) Media--Dulbeccos with glucose and pyruvate (Biologos, Inc) with 10% horse serum, (Biologos, Inc) and 1.0 ug/ml gentamicin (Gibco).
(§4) Cells--L1210 and P-388 mouse leukemia cells (American Type Culture Collection) in media at a concentration of 5×10^4 cells/ml. Sterile 24-well culture plates (Nunc) for screening or 12×75 mm glass culture tubes (Becton-Dickinson) for tube assay. Microdispenser with 1 to 5 ul increments (Drummond Scientific Co. Broomall PA).
(§5) Finnpipette with 5 to 50 ul increments and Finnpipette with 50 to 200 ul increments.
(§6) 1. A sample of the composition to be assayed is added to each well or tube in an amount of from 200 ug/ml and 100 ug/ml for screening. For DDC of known active compounds use log concentrations from 100 ug/ml to 0.01 ug/ml for range-finding assay; when range has been determined, use five concentrations between highest and lowest active concentrations.
(§7) 2. Add 2.0 ml of 5×10^4 cell suspension in media to each well or tube. Tubes are loosely covered with parafilm.
(§8) 3. Incubate in 5% CO2 incubator 48 hours.
(§9) 4. Visually read plates with inverted microscope, comparing with solvent control. Assign activity as follows:
(§10) 1+=75-89% of control growth
(§11) 2+=50-74% of control growth
(§12) 3+=25-49% of control growth
(§13) 4+=<25% of control growth
(§14) Repeat all positive samples using tube assay.
(§15) 5. For Tube assays--Mix tube well on vortex and remove 0.5 ml aliquot and add to 9.5 ml nf diluent fluid (Isoton-Coulter) in Accuvette (Coulter) and mix well by inversion immediately before counting, taking care not to produce excessive bubbles. Count on Coulter Counter (Counter is set to count 0.5 ml of the solution, therefore counts may be converted to cell/ml in original assay tube by multiplying count by 40.
(§16) Positive control--Vinblastine or Vincristine in aqueous solution.

The test system of a further data set is lung carcinoma A549. Kind of data set: Cytotoxicity assay, lung carcinoma A549. The note with it: Homo sapiens, 48 h, summary table, read-out: Test Cells at (ID 50), A549. It is filed as cell-based. As for the experimental part: as §1, §2, §3, §5, §6, §7, §8, §9, §10, §11, §12, §13, §14, §15, §16
For data set [2], the system named is ileocecal adenocarcinoma HCT-8. Kind of data set: Cytotoxicity assay, ileocecal adenocarcinoma HCT-8. Particulars: Homo sapiens, 48 h, summary table, read-out: Test Cells at (ID 50), HCT-8. It counts as cell-based. On the procedure: as §1, §2, §3, §5, §6, §7, §8, §9, §10, §11, §12, §13, §14, §15, §16
A further data set relates to HSV-I. As to the kind of experiment: Antiviral assay: inhibition of HSV-I plaque formation (disks pushed into methyl cellulose overlay). The note with it: for 25 to 80 plaque forming units of virus cells. It counts as cell-based, herpes simplex-I. On the procedure: The following assay method was utilized to illustrate the antiviral effectiveness of compound (1). (1) Remove 75 cm^2 culture flasks from incubator (these were plated the previous week). (2) Aspirate medium. (3) Wash with 10 ml PBSA or Puck's Saline. (4) Aspirate. (5) Wash a second time with 10 ml PBSA or Puck's Saline. (6) Aspirate. (7) Add 2 ml trypsin/EDTA. Incubate until cells detach (10-20 min). (8) Once detached, shake vigorously and immediately add 8 ml medium and shake again. (9) Count cells. (To 0.5 ml cell suspension add 0.1 ml trypan blue. Wait 5-10 minutes. Count 4 corner squares and middle square of 5×5 array in hemocytometer. Blue cells are dead. Total count per 10 ml in culture flask=# live cells×6×10^5). (10) Maintain cell line by adding 3×10^6 cells to another 75 cm^2 culture flask. Bring to 30 ml with fresh medium. (11) For assay, add 1×10^6 cells to each well (6 wells per culture dish). Bring each well to 2 ml with fresh medium. (12) Incubate overnight at 37° C. (1) Aspirate medium. […] (3) Incubate […] with a small amount of shaking. (4) Add 2 ml MC-4000 to each well. (5) Place disks on surface and push through (1 mg/disc, 0.5 mg/disc, 0.25 mg/disc, etc. for crude extracts). (6) Incubate 48 hr. (making sure dishes remain level). (1) Add 2 ml neutral red medium. (2) Incubate overnight. […]

For another data set, the system named is cells. As to the kind of experiment: Zone of cytotoxicity in the antiviral disk assay. It counts as cell-based. The note with it: read at Day 5, disk assay. As for the experimental part:
The following assay method was utilized to illustrate the antiviral effectiveness of compound (1).
(8) Once detached, shake vigorously and immediately add 8 ml medium and shake again.
(9) Count cells. (To 0.5 ml cell suspension add 0.1 ml trypan blue. Wait 5-10 minutes. Count 4 corner squares and middle square of 5×5 array in hemocytometer. Blue cells are dead. Total count per 10 ml in culture
(11) For assay, add 1×10^6 cells to each well (6 wells per culture dish). Bring each well to 2 ml with fresh medium.
(5) Place disks on surface and push through (1 mg/disc, 0.5 mg/disc, 0.25 mg/disc, etc. for crude extracts).
(6) Incubate 48 hr. (making sure dishes remain level).
(1) Add 2 ml neutral red medium.

The test system of data set [3] is L-1210 murine leukemia cells. Kind of data set: Cytotoxicity assay, L1210 mouse leukemia cells. It is filed as cell-based. The note with it: for viability at 200 µg/mL: in vitro, at 200 micrograms per milliliter, read-out: survival, L-1210. As for the experimental part: as §1, §2, §3, §4, §5, §6, §7, §8, §9, §10, §11, §12, §13, §14, §15, §16
A short description of data set [4]: Stability at room temperature. It counts as physicochemical.
Setting [5] is: P-388, summary table, read-out: Test Cells at (ID 50), P-388.
Where [6] appears, read: in vitro, P-388 murine leukemia cells, read-out: estimated ID50 (dose which kills 50% of the cells), P-388.

SMILES strings stand for the structures. Values after ≈ are worked out from the molar mass of the structure shown. Where two headings read alike, the source gives them in different places.

On to `CC1(C)C=CC(=O)C(C(Cl)CBr)=C1` (stereo not drawn) [Composition 6], for which the IC50 was 0.5 µg/mL (≈ 1.9 µM) in data set [1] (setting [5]), 5 µg/mL (≈ 19 µM) in the data set with lung carcinoma A549 and 5 µg/mL (≈ 19 µM) in data set [2].

In the case of `CC(=O)OCC(Cl)C1=CC(C)(C)C=CC1=O` (stereo not drawn) [Compound 1], in the data set on HSV-I, the “minimal effective amounts (antiviral activity)” value was in the range of 50 to 100 micrograms. Also, the “zone of cytotoxicity as the diameter” value with cells stood at 16 mm. Further, the IC50 in data set [1] (setting [5]) was 5 µg/mL (≈ 20.6 µM); in data set [1] (setting [6]), 37 µg/mL (≈ 152 µM); with lung carcinoma A549 it was 20 µg/mL (≈ 82.4 µM); in data set [2], 10 µg/mL (≈ 41.2 µM).

As for `CC(=O)C1=CC(C)(C)C=CC1=O` [Compound 4], the IC50 is 5 µg/mL (≈ 30.4 µM) in data set [1] (setting [5]), 70 µg/mL (≈ 426 µM) in data set [1] (setting [6]), 5 µg/mL (≈ 30.4 µM) with lung carcinoma A549 and 5 µg/mL (≈ 30.4 µM) in data set [2]. Besides, the viability at 200 µg/mL in data set [3] was 41%.

As to `C=C(OC)C1=CC(C)(C)C=CC1=O` [Compound 2], the IC50 in data set [1] (setting [5]) was 5 µg/mL (≈ 28.1 µM); with lung carcinoma A549, 30 µg/mL (≈ 168 µM); in data set [2] it was 20 µg/mL (≈ 112 µM). In addition, the viability at 200 µg/mL in data set [3] turned out to be 15%.

On to `COC(C)(OC)C1=CC(C)(C)C=CC1=O` [Compound 3], for which the IC50 in data set [1] (setting [5]) is 10 µg/mL (≈ 47.6 µM); in data set [1] (setting [6]) it was 70 µg/mL (≈ 333 µM); with lung carcinoma A549, 30 µg/mL (≈ 143 µM); in data set [2], 30 µg/mL (≈ 143 µM). Besides, the viability at 200 µg/mL in data set [3] amounted to 17%.

Take `CC1(C)C=CC(=O)C(C(Cl)CO)=C1` (stereo not drawn) [Formula VIII]: the decomposition entry in data set [4] is on record as “decompose at room temperature in two hours”.

On to `CC1(C)C=CC(=O)C(C2CO2)=C1` (stereo not drawn) [Compound 5], for which the IC50 in data set [1] (setting [5]) is 10 µg/mL (≈ 60.9 µM); in data set [1] (setting [6]) it was 5 µg/mL (≈ 30.4 µM); in data set [3] (L-1210 murine leukemia cells, read-out: estimated ID50, L-1210) it was 0.7 µg/mL (≈ 4.26 µM); in the data set with lung carcinoma A549, 1 µg/mL (≈ 6.09 µM); in data set [2], 5 µg/mL (≈ 30.4 µM). Also, the viability at 200 µg/mL in data set [3] was found to be 25%.

The values are drawn from patent US4708962A, “Antiviral and antitumor cyclohexadienone compositions” (Harbor Branch Oceanographic Institution, Inc., priority 1985, dated 1987).
